Data from paper PMC8543760 (Cell chemical biology, 2018).

Biological target: cytoplasmic dynein 1 (Sus scrofa, UniProt A0A287B9W3)
Assay: microtubule-stimulated ATPase assay
Format: biochemical

N#CC(=C(O)c1ccc(Cl)cc1Cl)c1nc2ccccc2c(=O)[nH]1 [Ciliobrevin A]
IC50: ~84 µM
